From patent US8252832B2, “Kinesin inhibitors as cancer therapeutics” (Novartis AG, priority 2007, dated 2012)
Where two headings read alike, the source gives them in different places. Marks after values point to notes of the source that are not given here.

Tests used:
[1] = HCT15 tumor xenograft model, host response; type: in vivo, mouse; settings: q4d × 3, i.v
Method: (§1) Routine animal care and assurance of welfare were as described above.
(§2) Treatments for the efficacy studies were initiated 10 days following tumor cell implantation when tumors were approximately 300 mm^3. Compound IIa and SB-715992 were administered intravenously (i.v.) via the tail vein in a volume of 8 mL/kg at the doses indicated. Paclitaxel was administered intraperitoneally (i.p.) in a volume of 16 mL/kg at 30 mg/kg.
(§3) Tumor volume was calculated as (L×W2)/2. […] Data was analyzed as described above.

[2] = 5 mg/kg, i.v., q4d × 3
Method: Experiments were performed using outbred athymic nu/nu mice (Charles River Laboratories) approximately 6-8 weeks old. Upon arrival, animals received a subcutaneous microchip implant (AVID, Folsom, La.) in the subscapular region for identification of individuals. Animals were allowed to acclimatize for 1 week before any experimental procedures began.
Compound IIa, compound IIc, compound IIa (shown below), and SB-715992 were formulated in a Captisol®-based formulation. Doses were administered intravenously (i.v.) and adjusted to each animal's body weight. Formulations were made once at the beginning of study and stored at room temperature. Clinical grade paclitaxel was purchased pre-mixed in a cremophor-based vehicle (Mayne Pharma, now Hospira, Lake Forest, Ill., catalog #NDC-6170334209) and diluted in sterile saline to provide a dose volume of 16 mL/kg for a 30 mg/kg dose administered intraperitoneally (i.p.)
For the efficacy studies, mice were enrolled with a mean tumor volume of approximately 300 mm^3. Tumor xenografts were measured in two dimensions (L and W) with digital calipers twice weekly from the start of dosing on Day 0. Tumor volume was calculated as (L×W^2)/2. Body weights were measured twice weekly and clinical observations were recorded daily. Tumor volume and body weights were captured and stored by StudyDirector software (StudyLog, South San Francisco, Calif.).

HCT15 tumor xenograft = HCT15 tumor xenograft model, tumor response; type: in vivo, mouse; settings: q4d × 3, i.v
Method: as §1
Human HCT15 colon carcinoma cells were obtained from the National Cancer Institute's DCTD Tumor Repository (catalog #NCI-502711, Rockville, Md.). HCT15 cells were grown in RPMI 1640 with 2 mM L-glutamine (Mediatech Inc., catalog #15-040-CV) supplemented with 10% fetal bovine serum (JRH Biosciences, catalog #12003-1000M). The cells were tested to be free of Mycoplasma sp. and murine viruses in the IMPACT1 PCR assay panel (RADIL, University of Missouri, Columbia, Mo.)
These cells were grown as adherent cultures, maintained at 37° C. in a humidified atmosphere containing 5% carbon dioxide. Cells were cultured for fewer than 10 passages prior to use. Cells were harvested at 95% confluency, and centrifuged at ˜800×g for 5 minutes at 4° C. and then resuspended in a 1:1 ratio of HBSS (Mediatech Inc., catalog #21-021-CV) plus Matrigel™ at a concentration of 50 million cells/mL for implantation subcutaneously (injection volume of 0.2 mL).
as §2, §3

KB8.5 tumor xenograft = KB8.5 tumor xenograft model (P-gp expressing), tumor response; type: in vivo, mouse; settings: 5 mg/kg, i.v., q4d × 3
Method: Cells were cultured for fewer than 10 passages prior to use. […] All data were expressed as mean and SEM. Between-groups comparisons for final tumor measurements were performed using the one-way ANOVA pair-wise analysis. Significance was determined using Kruskal-Wallis one-way ANOVA on Ranks, followed by appropriate post-hoc test (Dunn's Method or Tukey Test) for multiple pair-wise comparisons. Statistical analysis was carried out using SigmaStat (Systat Software Inc., San Jose, Calif.).

[3] = test system: MV4; 11 human AML subcutaneous xenograft tumors; experiment: Subcutaneous MV4; 11 tumor xenograft model, tumor response; type: in vivo, mouse
Method: Subcutaneous tumor efficacy studies were performed using outbred athymic nu/nu mice approximately 6-8 weeks old (Charles River Laboratories, Hollister, Calif.). The efficacy study in the disseminated disease model was performed using immunodeficient NOD-SCID female mice approximately 7-8 weeks old (Jackson Laboratories, Bar Harbor, Me.). […] Routine animal care and assurance of welfare were as described above.
Human MV4; 11 acute myelogenous leukemia cells were obtained from American Tissue Culture Collection (catalog #CRL-9591, Rockville, Md.) and tested to be free of Mycoplasma sp. and murine viruses in the IMPACT1 PCR assay panel (RADIL, University of Missouri, Columbia, Mo.). For the disseminated disease model, a stable pool of MV4; 11 cells expressing the luciferase gene was received from Fangxian Sun at the Genomics Institute of the Novartis Research Foundation in San Diego, Calif. (MV4; 11-luc). The MV4; 11 cells were grown in Iscove's modified Dulbecco's medium (Mediatech Inc., catalog #15-016-CV) supplemented with 10% fetal bovine serum (JRH Biosciences, catalog #12003-1000M), 4 mM L-glutamine and 5 ng/mL recombinant human […] (GM-CSF) (R&D Systems, catalog #215-GM). MV4; 11-luc were grown in the same media, but with the addition of 2 micrograms/mL of puromycin for selection of luciferase expression. These cells were grown as suspension cultures, maintained at 37° C. in a humidified atmosphere containing 5% carbon dioxide. Cells were cultured for fewer than 10 passages prior to use. Cells were harvested at approximately 2 million cells/mL, and centrifuged at ˜800×g for 5 minutes at 4° C. and then resuspended in a cold HBSS (Mediatech Inc., catalog #21-021-CV) at a concentration of 25 million cells/mL (containing 50% Matrigel™, BD Biosciences, catalog #354234) for implantation subcutaneously (injection volume of 0.2 mL) or at a concentration of 100 million cells/mL for implantation intravenously (i.v.) via the tail vein (injection volume of 0.1 mL). Mice were irradiated with 3 gray for 3 minutes one day prior to the i.v. cell implant.
The compound IIa (free base) and SB-715992 (free base) were formulated in 20% Captisol for a dose volume of 8 mL/kg. Doses were adjusted to each animal's body weight.
For the two efficacy evaluations in the subcutaneous tumor model, 10 million cells combined in a 1:1 mixture of HBSS and Matrigel™ were injected subcutaneously in the right flank in a total volume of 0.2 mL/mouse. […] Tumor volume was calculated as (L×W2)/2.

[4] = Study 2, 0.13 mg/kg, q4d × 3, i.v
[5] = Study 2, 0.25 mg/kg, q4d × 3, i.v
[6] = Study 2, 0.5 mg/kg, q4d × 3, i.v

## CC(C)(C)[C@H](c1nc(-c2cc(F)ccc2F)cn1Cc1ccccc1)N(CC[C@H](N)CF)C(=O)CO [Compound IIa]
[1]; 1.25 mg/kg
  Survival (alive/total): 9/9
[1]; 2.5 mg/kg
  Survival (alive/total): 9/9
[1]; 4.0 mg/kg
  Survival (alive/total): 9/9
[2]
  Survival (alive/total): 9/9
[2]; D11
  % Max. Δ body weight, (Day): −2 (D11) %
HCT15 tumor xenograft; 1.25 mg/kg
  Δ Tumor volume, Day 15: 671 ± 172 mm^3
  ΔT/ΔC, Day 15 (%): 60%
HCT15 tumor xenograft; 2.5 mg/kg
  Δ Tumor volume, Day 15: 735 ± 159 mm^3
  ΔT/ΔC, Day 15 (%): 65%
HCT15 tumor xenograft; 4.0 mg/kg
  Δ Tumor volume, Day 15: 99 ± 78 mm^3
HCT15 tumor xenograft; 4.0 mg/kg, listed as COMPOUND IIa
  ΔT/ΔC, Day 15 (%): 26* %
HCT15 tumor xenograft; 4.0 mg/kg, listed as compound IIa
  ΔT/ΔC, Day 15 (%): 26%
KB8.5 tumor xenograft
  ΔT/ΔC, Day 11 (%): 19%
[3]; 0.625 mg/kg, q4d × 3, i.v.
  CR (complete tumor regressions): 0
  Δ Tumor volume, Day 24: −32 ± 172 mm^3
[3]; 0.625 mg/kg, q4d × 3, i.v., D10
  % Max Regression (Day): 69%
[3]; 4 mg/kg, q4d × 3, i.v.
  Δ Tumor volume, Day 24: −176 ± 31 mm^3
[3]; 4 mg/kg, q4d × 3, i.v., D60
  % Max Regression (Day): 100, %
[3]; 4 mg/kg, q4d × 3, i.v., listed as COMPOUND IIa
  CR (complete tumor regressions): 9
[3]; 4 mg/kg, q4d × 3, i.v., listed as compound IIa
  CR (complete tumor regressions): 9/9
[3]; [4]
  CR (complete tumor regressions): 0
  Δ Tumor volume, Day 21: 921 ± 341 mm^3
  ΔT/ΔC, Day 21 (%): 161%
[3]; [5]
  CR (complete tumor regressions): 0
  Δ Tumor volume, Day 21: 765 ± 196 mm^3
  ΔT/ΔC, Day 21 (%): 133%
[3]; [6]
  CR (complete tumor regressions): 0
  Δ Tumor volume, Day 21: 114 ± 110 mm^3
  ΔT/ΔC, Day 21 (%): 20%
[3]; Study 2, 0.5 mg/kg, q4d × 3, i.v, D10
  % Max. Regression (Day): 55 (D10) %
[3]; Study 2, 1 mg/kg, q4d × 3, i.v
  CR (complete tumor regressions): 6
  Δ Tumor volume, Day 21: −194 ± 27 mm^3
[3]; Study 2, 1 mg/kg, q4d × 3, i.v, D63
  % Max. Regression (Day): 89 (D63) %
[3]; Study 2, 2 mg/kg, q4d × 3, i.v
  CR (complete tumor regressions): 5
  Δ Tumor volume, Day 21: −201 ± 23 mm^3
[3]; Study 2, 2 mg/kg, q4d × 3, i.v, D63
  % Max. Regression (Day): 87 (D63) %
